From patent US6962912B2, “Substituted pyrazolo[4,3-e]diazepines, pharmaceutical compositions containing them, use as medicinal products and processes for preparing them” (Warner-Lambert LLC, priority 2000, dated 2005) come the findings set out here.

For one series, the target named is PDE4. The series can be described thus: Inhibition of PDE4 (cytosolic enzyme preparation from U937 line), compared with rolipram. Format: biochemical, human. The settings on record: PDE4 enzyme preparation obtained from the U937 line.

Molecules are shown by their SMILES.

`CCCn1nc(C)c2c1C(=S)NCC(c1ccccc1)=N2` [Example 22, 3-Methyl-5-phenyl-1-propyl-6,7-dihydro-1H-pyrazolo[4,3-e][1,4]diazepin-8-thione] yielded a melting point of 156 °C. This molecule also returned a concentration for half-maximal inhibition (IC50) at PDE4 of 28 nM.

In turn, `CCn1nc(C(C)C)c2c1C(=O)NCC(c1ccc(N)cc1)=N2` [Example 27, 5-(4-Aminophenyl)-1-ethyl-3-isopropyl-6,7-dihydro-1H-pyrazolo[4,3-e][1,4]diazepin-8-one] gave a melting point of 191 °C. This molecule returned an IC50 on PDE4 of 3.8 nM.

For `CCCn1nc(C)c2c1C(=O)NCC(c1ccc(N)cc1)=N2` [Example 29, 5-(4-Aminophenyl)-3-methyl-1-propyl-6,7-dihydro-1H-pyrazolo[4,3-e][1,4]diazepin-8-one], the melting point turned out to be 225 °C. The molecule further returned an IC50 on PDE4 of 330 nM.

Take `CCn1nc(C)c2c1C(=O)NCC(C(C)(C)C)=N2` [Example 33, 5-tert-Butyl-1-ethyl-3-methyl-6,7-dihydro-1H-pyrazolo[4,3-e][1,4]diazepin-8-one]: the melting point came out at 120 °C. This molecule also showed a concentration for half-maximal inhibition (IC50) against PDE4 of 110 nM.

Take `CCCCc1nn(CC)c2c1N=C(c1ccccc1)CNC2=S` [Example 52, 3-Butyl-1-ethyl-5-phenyl-6,7-dihydro-1H-pyrazolo[4,3-e][1,4]diazepin-8-thione]: the melting point turned out to be 151.5 °C. Moreover, half-maximal inhibition against PDE4 (IC50) was put at 0.65 nM.

The molecule `CCn1nc(C)c2c1C(=O)NCC(c1cccnc1)=N2` [Example 53, 1-Ethyl-3-methyl-5-pyrid-3-yl-6,7-dihydro-1H-pyrazolo[4,3-e][1,4]diazepin-8-one] had a melting point of 178 °C. Moreover, at PDE4, the half-inhibitory concentration (IC50) stood at 260 nM.

Molecule `CCn1nc(C)c2c1C(=O)NCC(c1ccccn1)=N2` [Example 54, 1-Ethyl-3-methyl-5-pyrid-2-yl-6,7-dihydro-1H-pyrazolo[4,3-e][1,4]diazepin-8-one] registered a melting point of 153 °C. This molecule also displayed an IC50 on PDE4 of 240 nM.

The molecule `CCn1nc(C(C)(C)C)c2c1C(=NC#N)NCC(c1ccccc1)=N2` [Example 57, 3-tert-Butyl-1-ethyl-5-phenyl-6,7-dihydro-1H-pyrazolo[4,3-e][1,4]diazepin-8-ylidene-cyanamide] registered a melting point of 250 °C. This molecule also yielded an IC50 against PDE4 of 0.13 nM.

For `CCn1nc(C)c2c1C(=O)NCC(c1ccc(C(F)(F)F)cc1)=N2` [Example 60, 1-Ethyl-3-methyl-5-(4-trifluoromethylphenyl)-6,7-dihydro-1H-pyrazolo[4,3-e][1,4]diazepin-8-one], the melting point is 195 °C. At PDE4, this molecule gave an IC50 of 580 nM.

In the case of `CCCn1nc(C(C)C)c2c1C(=S)NCC(c1ccc(C)cc1)=N2` [Example 63, 3-Isopropyl-1-propyl-5-p-tolyl-6,7-dihydro-1H-pyrazolo[4,3-e][1,4]diazepin-8-thione], the melting point stood at 162.9 °C. At PDE4, it took 5 nM to reach half-maximal inhibition (IC50).

`CCCn1nc(C(C)(C)C)c2c1C(=S)NCC(C(C)(C)C)=N2` [Example 64, 3,5-Di-tert-butyl-1-propyl-6,7-dihydro-1H-pyrazolo[4,3-e][1,4]diazepin-8-thione] returned a melting point of 205 °C. The same molecule yielded an IC50 on PDE4 of 4.6 nM.

`CCCn1nc(C(C)C)c2c1C(=S)NCC(C(C)(C)C)=N2` [Example 65, 5-tert-Butyl-3-isopropyl-1-propyl-6,7-dihydro-1H-pyrazolo[4,3-e][1,4]diazepin-8-thione] came in with a melting point of 165 °C. The molecule also came in with an IC50 against PDE4 of 1.5 nM.

In the case of `CCn1nc(C(C)C)c2c1C(=S)NCC(c1ccc(C)cc1)=N2` [Example 66, 1-Ethyl-3-isopropyl-5-p-tolyl-6,7-dihydro-1H-pyrazolo[4,3-e][1,4]diazepin-8-thione], the melting point is 178 °C. At PDE4, this molecule registered an IC50 of 0.63 nM.

The molecule `CCn1nc(C(C)C)c2c1C(=S)NCC(C(C)(C)C)=N2` [Example 67, 5-tert-Butyl-1-ethyl-3-isopropyl-6,7-dihydro-1H-pyrazolo[4,3-e][1,4]diazepin-8-thione] returned a melting point of 218 °C. Moreover, inhibition at PDE4 was half-maximal at 1 nM (IC50).

Consider `CCn1nc(C(C)C)c2c1C(=NC#N)NCC(C(C)(C)C)=N2` [Example 80, 5-tert-Butyl-1-ethyl-3-isopropyl-6,7-dihydro-1H-pyrazolo-[4,3-e][1,4]diazepin-8-ylidenecyanamide], for which the melting point was 243 °C. On PDE4, this molecule yielded a half-maximal inhibitory concentration (IC50) of 0.22 nM.

In turn, `CCn1nc(C(C)C)c2c1C(=NC#N)NCC(c1ccc(C)cc1)=N2` [Example 81, 1-Ethyl-3-isopropyl-5-p-tolyl-6,7-dihydro-1H-pyrazolo-[4,3-e][1,4]diazepin-8-ylidenecyanamide] had a melting point of 245 °C. The molecule also displayed an IC50 on PDE4 of 0.54 nM.

Turning to `CCn1nc(C(C)C)c2c1C(=O)NCC(c1ccc(OC)cc1)=N2` [Example 82, 1-Ethyl-3-isopropyl-5-(4-methoxyphenyl)-6,7-dihydro-1H-pyrazolo[4,3-e][1,4]diazepin-8-one], the melting point turned out to be 150 °C. The same molecule had an IC50 against PDE4 of 62 nM.

Turning to `CCn1nc(C)c2c1C(=NC#N)NCC(c1ccc(OC)cc1)=N2` [Example 84, 1-Ethyl-3-methyl-5-(4-methoxyphenyl)-6,7-dihydro-1H-pyrazolo[4,3-e][1,4]diazepin-8-ylidenecyanamide], the melting point turned out to be 265 °C. The molecule further displayed an IC50 at PDE4 of 60 nM.

Turning to `CCCn1nc(C(C)C)c2c1C(=O)NCC(c1ccc(OC)cc1)=N2` [Example 85, 3-Isopropyl-5-(4-methoxyphenyl)-1-propyl-6,7-dihydro-1H-pyrazolo[4,3-e][1,4]diazepin-8-one], the melting point was found to be 142 °C. Half-maximal inhibition against PDE4 (IC50) was put at 200 nM.

`CCn1nc(C(C)(C)C)c2c1C(=O)NCC(c1ccc(OC)cc1)=N2` [Example 86, 3-tert-Butyl-1-ethyl-5-(4-methoxyphenyl)-6,7-dihydro-1H-pyrazolo[4,3-e][1,4]diazepin-8-one] came in with a melting point of 180 °C. The molecule also had a concentration for half-maximal inhibition (IC50) at PDE4 of 310 nM.

Regarding `CCCn1nc(C(C)(C)C)c2c1C(=O)NCC(c1ccc(OC)cc1)=N2` [Example 87, 3-tert-Butyl-5-(4-methoxyphenyl)-1-propyl-6,7-dihydro-1H-pyrazolo[4,3-e][1,4]diazepin-8-one], the melting point worked out at 167 °C. Moreover, at PDE4, 41 nM corresponded to half-maximal inhibition (IC50).

Molecule `CCn1nc(C)c2c1C(=NC#N)NCC(c1ccc(O)cc1)=N2` [Example 88, 1-Ethyl-3-methyl-5-(4-hydroxyphenyl)-6,7-dihydro-1H-pyrazolo[4,3-e][1,4]diazepin-8-ylidenecyanamide] yielded a melting point of 300 °C. The IC50 against PDE4 amounted to 2.1 nM.

Consider `CCn1nc(C)c2c1C(=O)NCC(c1cc(OC)c(OC)c(OC)c1)=N2` [Example 91, 1-Ethyl-3-methyl-5-(3,4,5-trimethoxyphenyl)-6,7-dihydro-1H-pyrazolo[4,3-e][1,4]diazepin-8-one], for which the melting point came to 208 °C. The IC50 at PDE4 was determined as 900 nM.

As to `CCn1nc(C)c2c1C(=O)NCC(c1cccc(O)c1)=N2` [Example 92, 1-Ethyl-5-(3-hydroxyphenyl)-3-methyl-6,7-dihydro-1H-pyrazolo[4,3-e][1,4]diazepin-8-one], the melting point stood at 204 °C. The molecule further came in with an IC50 on PDE4 of 92 nM.
